Laboratory results as given in PubChem BioAssay AID405 (SGCOxCompounds, 2006).

The compounds below were run against Receptor-type tyrosine-protein phosphatase R (Homo sapiens) (UniProt Q15256) (assay: PTPRR phosphatase inhibition, biochemical, recombinant human enzyme, DiFMUP fluorescence (AID 405)). Settings: DiFMUP fluorescence phosphatase assay.
Chain of Receptor-type tyrosine-protein phosphatase R (Homo sapiens) (Q15256 whole entry, looked up): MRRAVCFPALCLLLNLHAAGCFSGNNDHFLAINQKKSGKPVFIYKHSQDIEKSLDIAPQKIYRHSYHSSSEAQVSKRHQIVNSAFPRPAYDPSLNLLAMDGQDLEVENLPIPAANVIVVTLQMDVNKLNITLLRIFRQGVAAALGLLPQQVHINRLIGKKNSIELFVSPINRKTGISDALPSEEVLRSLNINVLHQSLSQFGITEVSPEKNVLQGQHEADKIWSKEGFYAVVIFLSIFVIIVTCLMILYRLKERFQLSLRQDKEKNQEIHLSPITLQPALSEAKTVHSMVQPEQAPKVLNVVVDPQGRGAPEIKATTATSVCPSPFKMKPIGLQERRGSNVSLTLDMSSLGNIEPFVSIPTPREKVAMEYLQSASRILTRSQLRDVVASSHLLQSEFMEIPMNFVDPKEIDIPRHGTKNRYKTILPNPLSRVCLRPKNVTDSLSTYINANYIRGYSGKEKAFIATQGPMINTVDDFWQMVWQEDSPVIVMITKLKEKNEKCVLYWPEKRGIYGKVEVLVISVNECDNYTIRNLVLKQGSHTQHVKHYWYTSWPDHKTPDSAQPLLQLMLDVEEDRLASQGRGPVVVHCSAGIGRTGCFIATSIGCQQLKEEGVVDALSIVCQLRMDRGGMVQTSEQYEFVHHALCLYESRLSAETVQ

Question: With `Cc1ccc(C)n1-c1cc(C(=O)O)ccc1O` as the compound, how does the IC50 read?
Answer: 3.9 µM

Question: `NC1=NC(=O)/C(=C/C=C/c2ccc([N+](=O)[O-])o2)S1` was tested. Which IC50 did it give?
Answer: 2.3 µM

Question: For `Cc1ccc(C)n1-c1ccc(C(=O)O)cc1O`, which IC50 is on record?
Answer: 13.7 µM

Question: With `CC(=O)c1ccc2c(c1)C1C=CCC1C(C(=O)O)N2` (configuration not stated) as the compound, how does the IC50 read?
Answer: 6.7 µM

Question: Which IC50 does the source give for `O=C(O)c1ccc(O)c(C=Nc2ccc3oc(-c4ccc(F)cc4Cl)nc3c2)c1` here?
Answer: 7.3 µM

Question: How did the IC50 turn out when `Cc1ccc2nc(-c3cc(N=Cc4cc(C(=O)O)ccc4O)ccc3O)[nH]c2c1` was run?
Answer: 25.6 µM

Question: Which IC50 does the source give for `COc1ccc(-c2nc3cc(N=Cc4cc(C(=O)O)ccc4O)ccc3o2)cc1` here?
Answer: 15.9 µM

Same assay, conditions: DiFMUP fluorescence phosphatase assay, at 50 µM, hits give high values

Question: `O=C(O)c1ccc(O)c(C=Nc2cccc(-c3nc4ccccc4o3)c2)c1` was tested. Which inhibition did it give?
Answer: 58%

Question: With `O=C(O)c1ccc(O)c(C=Nc2ccc3oc(-c4ccccc4)nc3c2)c1` as the compound, how does the inhibition read?
Answer: 66%

Question: Which inhibition does the source give for `O=C(O)c1ccc(O)c(C=Nc2ccc3oc(-c4cccc(Cl)c4)nc3c2)c1` here?
Answer: 83%

Question: For `O=C(O)c1ccc([O-])cn1.OO.OO.[K+].[K+].[O]=[V]`, which inhibition is on record?
Answer: 98%

Question: Which inhibition does the source give for `COc1ccc(OC)c(N=Cc2cc(C(=O)O)ccc2O)c1` here?
Answer: 69%

Question: For `O=C(O)c1ccc(O)c(C=Nc2ccc3oc(-c4cc(Cl)ccc4Cl)nc3c2)c1`, which inhibition is on record?
Answer: 81%

Question: `CC(C)(c1ccc(NS(=O)(=O)C(F)(F)F)cc1)c1ccc(C(C)(C)c2ccc(NS(=O)(=O)C(F)(F)F)cc2)cc1` was tested. Which inhibition did it give?
Answer: 91%

Question: How did the inhibition turn out when `O=C(O)c1ccc(O)cn1.OO.[O]=[V]` was run?
Answer: 95%

Question: For `CCn1nc(/C=C/c2ccccc2)[n+](=O)c2c(=O)n(C)c(=O)[nH]c21`, which inhibition is on record?
Answer: 63%

Question: For `O=C(O)c1ccc(O)c(C=Nc2ccc3oc(-c4cccc(Cl)c4Cl)nc3c2)c1`, which inhibition is on record?
Answer: 66%

Question: How did the inhibition turn out when `Cn1nc(/C=C/c2ccccc2)nc2c(=O)n(C)c(=O)nc1-2` was run?
Answer: 77%

Question: `O=C(O)c1ccc(O)c(/C=N/N(CCO)C2=NS(=O)(=O)c3ccccc32)c1` was tested. Which inhibition did it give?
Answer: 66%

Question: `O=C1NC(=S)NC(=O)C1=C/C=C/c1ccco1` was tested. Which inhibition did it give?
Answer: 100%

Question: How did the inhibition turn out when `CN(N=O)c1ccc(O)c(O)c1` was run?
Answer: 33%

Question: Which inhibition does the source give for `Cc1ccc2oc(-c3cccc(N=Cc4cc(C(=O)O)ccc4O)c3)nc2c1` here?
Answer: 51%

Question: How did the inhibition turn out when `OO.OO.[K+].[O]=[V].c1ccc(-c2ccccn2)nc1` was run?
Answer: 98%

Question: `O=C(O)c1ccc(O)c(N2C(=O)Nc3ccccc3N2O)c1` was tested. Which inhibition did it give?
Answer: 76%

Question: Which inhibition does the source give for `CCn1nc(-c2ccc(Cl)cc2)nc2c(=O)n(C)c(=O)nc1-2` here?
Answer: 64%

Question: `O=C1NC(=S)S/C1=C\C=C\c1ccc([N+](=O)[O-])o1` was tested. Which inhibition did it give?
Answer: 100%

Question: Which inhibition does the source give for `O=C([O-])c1ccccn1.OO.OO.[K+].[K+].[O]=[V]` here?
Answer: 98%
